{
  "source": "patent US10010585B2",
  "about": "“Methods of treating vestibular schwannoma and reducing hearing or neurite loss caused by vestibular schwannoma” (Massachusetts Eye and Ear Infirmary, priority 2014, dated 2018)",
  "key": {"NF2 VSs": {"tested_on": "NF2 VSs", "details": "NF2 VS patients; cited from earlier work"}, "primary VS cells [1]": {"tested_on": "primary VS cells", "test": "TUNEL cell death assay in primary VS cultures", "format": "cell-based, human", "details": "48 hours", "procedure": "Rate of apoptosis in 6 VS cultures was assessed and correlated with tumor growth in vivo and tumor volume. […] Apoptosis was measured using terminal deoxynucleotidyl transferase dUTP nick end labeling (TUNEL, Roche Applied Sciences, NY) following manufacturer's instructions. Briefly, immunofluorescence protocol was followed as described under ‘Immunofluorescence,’ until fixations, then the cells were washed with PBS thrice and incubated in 1% Triton-X for 10 minutes on shaker. The cells were washed with PBS once and incubated in TUNEL mix for 1 hour at 37° C., then for 30 minutes at RT on shaker. The cells were then incubated in rhodamine phalloidin (Life Technologies, NY, 1:40) and Hoechst stain for 20 minutes, washed with PBS thrice and mounted onto slides for imaging. TUNEL and Hoechst stained nuclei were counted in >3 fields and the ratio of TUNEL positive to Hoechst positive nuclei was used to determine apoptosis rate in vitro. A positive control of 10 minutes-DNAse (Roche Applied Sciences, NY) treatment prior to TUNEL labeling was utilized.\n(§1) For siRNA treatment, cultured primary VS cells or HEI-193 cells were placed in antibiotic and serum free media overnight. The next day, the cells were incubated with Life Technologies siRNAs targeting NF-κB genes RELA and NF-κB1, with control cells being treated with vehicle only (Lipofectamine RNAiMax), for 5 days. Some cultures were also incubated with a fluorescent random Oligo (Life Technologies) along with vehicle to assess transfection efficiency. siRNA experiments were performed in antibiotic and serum free media.\nBAY11 or curcumin, diluted in 100% DMSO, were mixed to the accurate concentrations in warmed media and applied to the cultures (with DMSO concentration in media being 1% maximum), alongside a no-treatment control receiving media alone with appropriate corresponding DMSO levels.\nAfter 48 hours of treatment, primary VS and Schwann cultures were fixed for BrdU staining, to visualize proliferation, or TUNEL staining, to visualize cell death.\nAfter 48 hours of treatment with salicylates, primary VS and SC cultures were fixed for BrdU staining, to visualize proliferation, or TUNEL staining, to visualize cell death."}, "COX-2": {"tested_on": "COX-2", "details": "48 hours, VS culture media", "procedure": "Prostaglandin (PTG) E2 was assayed in the media of VS cultures using the Prostaglandin E2 Parameter Assay Kit (R&D Systems, KGE004B). The media was collected after 48 hours of treatment from non-treated and treated cultured cells. Manufacturer's instructions were closely followed.\n(§2) The cultures were incubated with the drugs for 48 hours. To label proliferating cells, BrdU was added 20 hours before fixation. pH was measured in the media after drug addition to ensure no significant deviations."}, "primary VS cells [2]": {"tested_on": "primary VS cells", "test": "BrdU proliferation assay in primary VS cultures", "format": "cell-based, human", "details": "48 hours", "procedure": "Proliferation rate of 12 VS cultures was assessed and correlated with the tumor volume in the latest gadolinium enhanced T1-weighted MRI scan prior to surgical resection, and with tumor growth in vivo, measured as changes in the tumor's volume over time calculated from serial MRI scans. Tumor growth was standardized by dividing the growth rate by the initial tumor volume. Separate analyses were performed for solid tumors, which generally account for approximately 96% of VSs (Charabi et al., 1994), versus all studied tumors, which included 4 out of 13 total tumors with a visible cystic component, because cystic components could misrepresent true tumor volume (Charabi et al., 1994). To determine the level of cell proliferation in the cultures, Bromodeoxyuridine (BrdU) was added to the cells at a concentration of 10 μg/ml 20 hours before the cells were fixed. The cells were kept in the dark after the addition of BrdU Immunofluorescence protocol was followed as described under ‘Immunofluorescence,’ and cell and nuclear membranes were permeablized by incubation in 1% Triton-X for 10 minutes and by incubation in 2N Hydrochloric acid for 20 minutes, respectively, after fixation. Primary antibody against BrdU (AbD Serotec, NC, 1:200) and anti-rat IgG (Life Technologies, NY, 1:1000) were used. BrdU- and Hoechst-stained nuclei were counted in 3-5 fields and the ratio of BrdU positive to Hoechst positive nuclei was used to determine the proliferation rate in vitro. […]\n(§3) Cultured human primary VS cells, primary SCs and HEI-193 cells were treated with NF-κB inhibitors BAY11-7082 (BAY11) or curcumin for 48 hours (Santa Cruz Biotechnology). BAY11 or curcumin, diluted in 100% DMSO, were mixed to the accurate concentrations in warmed media and applied to the cultures (with DMSO concentration in media being 1% maximum), alongside a no-treatment control receiving media alone with appropriate corresponding DMSO levels. Experiments were performed in media fortified with antibiotics and serum (same formulation as described in Example 1 for culturing cells).\n(§4) After 48 hours of treatment, primary VS and Schwann cultures were fixed for BrdU staining, to visualize proliferation, or TUNEL staining, to visualize cell death. The same methodology as described in Example 1 was utilized. Cleaved caspase 3 staining, another apoptosis marker to reinforce findings using TUNEL, was conducted using an antibody against cleaved caspase 3 following the ‘immunofluorescence’ protocol outlined in Example 1.\nas §2\n(§5) After 48 hours of treatment with salicylates, primary VS and SC cultures were fixed for BrdU staining, to visualize proliferation, or TUNEL staining, to visualize cell death. The same methodology as described in Example 1 was utilized.\nTo understand cross-talk between HGF and VEGF-A pathway, cultured VS cells were incubated with Life Technologies silencer select siRNAs targeting VEGFA (s461) or MET (s8700). To understand whether HGF signaling contributed to VS proliferation, cultured VS cells were treated with MET inhibitor SU11274 (Sigma-Aldrich, MO, #S9820). Seventy-two hours after siRNA treatment or 12 hours after treatment with SU11274 (2 μM), cells were incubated with 10 μg/mL BrdU (Life Technologies, NY, # B23151) for 20 hours before fixation."}, "primary SCs [3]": {"tested_on": "primary SCs", "test": "BrdU proliferation assay in primary Schwann cell cultures", "format": "cell-based, human", "details": "48 hours", "procedure": "(§6) Proliferation rate of 12 VS cultures was assessed and correlated with the tumor volume in the latest gadolinium enhanced T1-weighted MRI scan prior to surgical resection, and with tumor growth in vivo, measured as changes in the tumor's volume over time calculated from serial MRI scans. Tumor growth was standardized by dividing the growth rate by the initial tumor volume. Separate analyses were performed for solid tumors, which generally account for approximately 96% of VSs (Charabi et al., 1994), versus all studied tumors, which included 4 out of 13 total tumors with a visible cystic component, because cystic components could misrepresent true tumor volume (Charabi et al., 1994). To determine the level of cell proliferation in the cultures, Bromodeoxyuridine (BrdU) was added to the cells at a concentration of 10 μg/ml 20 hours before the cells were fixed. The cells were kept in the dark after the addition of BrdU Immunofluorescence protocol was followed as described under ‘Immunofluorescence,’ and cell and nuclear membranes were permeablized by incubation in 1% Triton-X for 10 minutes and by incubation in 2N Hydrochloric acid for 20 minutes, respectively, after fixation. Primary antibody against BrdU (AbD Serotec, NC, 1:200) and anti-rat IgG (Life Technologies, NY, 1:1000) were used. BrdU- and Hoechst-stained nuclei were counted in 3-5 fields and the ratio of BrdU positive to Hoechst positive nuclei was used to determine the proliferation rate in vitro.\nas §3, §4, §2, §5"}, "HEI-193 NF2 VS cell line [4]": {"tested_on": "HEI-193 NF2 VS cell line", "test": "TUNEL cell death assay in HEI-193 cells", "format": "cell-based, human", "details": "48 hours", "procedure": "(§7) Rate of apoptosis in 6 VS cultures was assessed and correlated with tumor growth in vivo and tumor volume. Two out of the six VS had cystic components. Apoptosis was measured using terminal deoxynucleotidyl transferase dUTP nick end labeling (TUNEL, Roche Applied Sciences, NY) following manufacturer's instructions. Briefly, immunofluorescence protocol was followed as described under ‘Immunofluorescence,’ until fixations, then the cells were washed with PBS thrice and incubated in 1% Triton-X for 10 minutes on shaker. The cells were washed with PBS once and incubated in TUNEL mix for 1 hour at 37° C., then for 30 minutes at RT on shaker. The cells were then incubated in rhodamine phalloidin (Life Technologies, NY, 1:40) and Hoechst stain for 20 minutes, washed with PBS thrice and mounted onto slides for imaging. TUNEL and Hoechst stained nuclei were counted in >3 fields and the ratio of TUNEL positive to Hoechst positive nuclei was used to determine apoptosis rate in vitro. A positive control of 10 minutes-DNAse (Roche Applied Sciences, NY) treatment prior to TUNEL labeling was utilized.\n(§8) The same methodology as described in Example 1 was utilized for primary VS and SC cultures. Cultures were treated with NF-κB inhibitors approximately after 2 weeks of culturing. HEI-193 cell line was a gift from Dr. Giovannini at the House Ear Institute (Hung et al., 2002a).\nas §1, §3, §4"}, "primary SCs [5]": {"tested_on": "primary SCs", "test": "TUNEL cell death assay in primary Schwann cell cultures", "format": "cell-based, human", "details": "human, 48 h", "procedure": "as §7, §3, §4"}, "HEI-193 NF2 VS cell line [6]": {"tested_on": "HEI-193 NF2 VS cell line", "test": "BrdU proliferation assay in HEI-193 cells", "format": "cell-based, human", "details": "48 hours", "procedure": "as §6, §8, §1, §3, §4"}},
  "note": "“And” between values parts separate entries of the source, which are not always exact repeats. Equal entries are not always repeated. Where two headings read alike, the source gives them in different places.",
  "data": [
    {"molecule": "CS(=O)(=O)CCNCc1ccc(-c2ccc3ncnc(Nc4ccc(OCc5cccc(F)c5)c(Cl)c4)c3c2)o1", "note": "[Lapatinib, lapatinib]", "values": [
      {"measurement": "patients with decrease in tumor size / volume", "setting": "NF2 VSs", "value": "approximately 24%"},
      {"measurement": "patients with hearing improvement", "setting": "NF2 VSs", "value": "~31", "unit": "%"}
    ]},
    {"molecule": "O=C([O-])c1ccccc1O.[Na+]", "note": "[NaSal, sodium salicylate]", "values": [
      {"measurement": "cell death rate", "setting": "primary VS cells [1]; 5 mM", "value": "3.3±2.3", "unit": "%"},
      {"measurement": "secreted PTG levels, of NT cells", "setting": "COX-2; 1 mM", "value": 3.8, "unit": "%"},
      {"measurement": "secreted PTG levels, of NT cells", "setting": "COX-2; 5 mM", "value": 32.2, "unit": "%"},
      {"measurement": "proliferation, of the NT cells", "setting": "primary VS cells [2]; 1 mM", "value": "18% and 18.9±5.0%"},
      {"measurement": "proliferation, of the NT cells", "setting": "primary VS cells [2]; 5 mM", "value": "25.4±11.1", "unit": "%"},
      {"measurement": "proliferation, of the NT cells", "setting": "primary VS cells [2]; 10 mM", "value": "20.6±11.2", "unit": "%"},
      {"measurement": "proliferation, of the NT cells", "setting": "primary SCs [3]; 5 mM", "value": "104.4±13.2", "unit": "%"},
      {"measurement": "proliferation, of the NT cells", "setting": "primary SCs [3]; 10 mM", "value": "64.9±18.9", "unit": "%"}
    ]},
    {"molecule": "COc1cc(/C=C/C(=O)CC(=O)/C=C/c2ccc(O)c(OC)c2)ccc1O", "note": "[curcumin]", "values": [
      {"measurement": "cell death rate", "setting": "HEI-193 NF2 VS cell line [4]; 5 μM", "value": "0.3±0.1", "unit": "%"},
      {"measurement": "cell death rate", "setting": "HEI-193 NF2 VS cell line [4]; 20 μM", "value": "77.3±8.4", "unit": "%"},
      {"measurement": "cell death rate", "setting": "HEI-193 NF2 VS cell line [4]; 50 μM", "value": "97.8±1.5", "unit": "%"},
      {"measurement": "cell death rate", "setting": "primary VS cells [1]; 5 μM", "value": "11.6±6.3", "unit": "%"},
      {"measurement": "cell death rate", "setting": "primary VS cells [1]; 20 μM", "value": "1.8±1.0", "unit": "%"},
      {"measurement": "cell death rate", "setting": "primary VS cells [1]; 50 μM", "value": "73.3±6.3", "unit": "%"},
      {"measurement": "proliferation, of the non-treated cells", "setting": "primary VS cells [2]; 5 μM", "value": "141.8%±95.2%"},
      {"measurement": "proliferation, of the non-treated cells", "setting": "primary VS cells [2]; 20 μM", "value": "23.0±20.9", "unit": "%"},
      {"measurement": "normalized proliferation rate", "setting": "primary SCs [3]; 5 μM", "value": "85.3±25.7", "unit": "%"},
      {"measurement": "normalized proliferation rate", "setting": "primary SCs [3]; 20 μM", "value": "31.0±18.3", "unit": "%"},
      {"measurement": "normalized proliferation rate", "setting": "primary SCs [3]; 50 μM", "value": 3.14, "unit": "%"},
      {"measurement": "apoptosis / cell death rate", "setting": "primary SCs [5]; 5 μM", "value": "1.3±0.3", "unit": "%"},
      {"measurement": "cell death rate", "setting": "primary SCs [5]; 20 μM", "value": "1.7±0.4", "unit": "%"},
      {"measurement": "cell death rate", "setting": "primary SCs [5]; 50 μM", "value": "52.2±14.9", "unit": "%"},
      {"measurement": "normalized proliferation rate", "setting": "HEI-193 NF2 VS cell line [6]; 5 μM", "value": "95.0±1.6", "unit": "%"},
      {"measurement": "normalized proliferation rate", "setting": "HEI-193 NF2 VS cell line [6]; 20 μM", "value": "0.4±0.4", "unit": "%"},
      {"measurement": "normalized proliferation rate", "setting": "HEI-193 NF2 VS cell line [6]; 50 μM", "value": "2.3±2.3", "unit": "%"}
    ]},
    {"molecule": "bevacizumab", "values": [
      {"measurement": "patients with decrease in tumor size / volume", "setting": "NF2 VSs", "value": 55, "unit": "%"},
      {"measurement": "patients with hearing improvement", "setting": "NF2 VSs", "value": 57, "unit": "%"}
    ]}
  ]
}
